The text below walks through data of ChEMBL document CHEMBL1201862, “PubChem BioAssay data set” (2004).

Some test systems named below: SNB-78; HOP-18; DLD-1; LXFL 529; RXF 631; KM-20L2; M19-MEL; XF498; DMS-114.
What all share (test): inhibition of tumour cell growth, NCI panel, 48 h

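All cell lines were grown in 96-well plates and treated with compound for 48 hours. At the GI50, growth is halved.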 Calls of active or inactive are those of the source. Cut-off read from the data, not from the text of the source: active = GI50 up to about 1.1 µM and inactive = higher.

With `CCOC(=O)c1s/c(=N\Nc2nc3ccccc3cc2C2OCCO2)n(Cc2ccccc2)c1C`, the GI50 with SNB-78, in the assay on HOP-18, in the assay on DLD-1, with LXFL 529, in the assay with RXF 631 and with KM-20L2 was > 100 µM (inactive) throughout. For the same compound, the GI50 in the assay with M19-MEL, in the assay on XF498 and in the assay on DMS-114 was > 100 µM (inactive) each time.

Take `N#CCC(=O)N/N=C(/C(=O)Nc1ccccc1)C1C(=O)N(c2ccccc2)N=C1N` (stereo unspecified): the GI50 in the assay on SNB-78, in the assay on HOP-18, in the assay on DLD-1, in the assay with LXFL 529, with RXF 631 and with KM-20L2 was > 100 µM (inactive) each time. Further, the GI50 with M19-MEL, with XF498 and with DMS-114 was > 100 µM (inactive) throughout.

`O=c1[nH]cc(COCC(O)CO)c(=O)[nH]1` (stereo unspecified): the GI50 in the assay on SNB-78, in the assay on HOP-18, in the assay on DLD-1, with LXFL 529, with RXF 631 and in the assay on KM-20L2 was > 100 µM (inactive) in each case. In addition, the GI50 with M19-MEL, in the assay on XF498 and in the assay with DMS-114 was > 100 µM (inactive) throughout.

Take `COc1ccccc1NC(=O)C1=C(C)NC(C)=C(C(=O)Nc2ccccc2OC)C1c1ccc([N+](=O)[O-])cc1`: the GI50 was > 100 µM (inactive) in the assay with SNB-78; > 100 µM (inactive) in the assay on HOP-18; 46.6 µM (inactive) with DLD-1; 48.2 µM (inactive) in the assay with LXFL 529; 56.8 µM (inactive) in the assay on RXF 631; > 100 µM (inactive) in the assay with KM-20L2. In addition, the results for the GI50 in the assay on XF498 and in the assay with DMS-114 were 3.5 µM (inactive) and 9.12 µM (inactive), respectively.

For the compound `Cc1c2ccnc(C(N)=O)c2c(C)c2c1[nH]c1ccccc12`, the GI50 with SNB-78 was 14 µM (inactive); in the assay on HOP-18 it was 9.48 µM (inactive); in the assay with DLD-1 it was 5.07 µM (inactive); in the assay with LXFL 529, 5.69 µM (inactive); in the assay with RXF 631, 4.58 µM (inactive); in the assay on KM-20L2, 6.62 µM (inactive). The figures for the GI50 with M19-MEL, with XF498 and in the assay on DMS-114 were 7.46 µM (inactive), 8.24 µM (inactive) and 8.91 µM (inactive), respectively.

As for `C=CCc1cc(-c2cc(CC=C)c(O)c(CN(CCCl)CCCl)c2)cc(CN(CCCl)CCCl)c1O`, the GI50 with SNB-78 was 35.4 µM (inactive); in the assay on HOP-18, 25.2 µM (inactive); with DLD-1, 16.4 µM (inactive); in the assay with LXFL 529 it was 12.2 µM (inactive); in the assay on RXF 631 it was 14.1 µM (inactive); with KM-20L2 it was 16.6 µM (inactive). The GI50 is 14.5 µM (inactive) with M19-MEL and > 10 µM (inactive) in the assay with XF498.

On to `Cc1nn(-c2ccccc2)c2nc(N3CCOCC3)nnc12`, for which the GI50 with SNB-78 was > 100 µM (inactive); in the assay with HOP-18, < 0.01 µM (active); in the assay on DLD-1, 59.2 µM (inactive); in the assay with LXFL 529 it was 53.3 µM (inactive); with RXF 631, 92.7 µM (inactive); in the assay on KM-20L2 it was > 100 µM (inactive). Also, the GI50 with M19-MEL was > 100 µM (inactive); with XF498, 51.8 µM (inactive); with DMS-114, 34.4 µM (inactive).
